What was measured:
PATX173 tissue slices = experiment: Live Tissue Sensitivity Assay (LTSA), PATX173; type: cell-based; conditions: 72 hours
Description: (§1) Animal experiment protocol was reviewed and approved by The University of Texas MD Anderson Cancer Center (Houston, Tex.) institutional review board and in accordance with the Guidelines for the Care and Use of Laboratory Animals published by the National Institutes of Health. PDXs were grown from cryopreserved early passages of PDXs in nude mice as described in previous publications (Kim M P, et al, Nat Protoc 2009; 4(11): 1670-80). Briefly, tumor samples stored in CryoStor™ CS10 storage medium were recovered and cut into about 2 mm3 fragments, soaked in Matrigel, and implanted into the subcutaneous space of Balb/c nude mice (5 mice/PDX). Tumors were harvested when they reach 1.5 cm in diameter for generating tissue slices for drug testing with quadruplicates.
(§2) About 100 tissue slices were produced from 1 tumorgraft with tissue slicer and arrayed in 96-well plates with previously established method (Roife D, et al, Clin Cancer Res 2016). […] Same volume of medium with 0.1% DMSO was added into control wells. After 72 hours, tissue viabilities were measured with PrestoBlue method. Viability inhibition will be calculated through normalization of viabilities of tissue slices treated with inhibitor against the viability of control (DMSO treated) slices. Inhibition of viability was further analyzed with t-test. […]

PATX92 tissue slices = experiment: Live Tissue Sensitivity Assay (LTSA), PATX92; type: cell-based; conditions: 72 hours
Description: as §1, §2

[1] = test system: TGFβ pathway genes in PATC53 pancreatic cancer cells; experiment: Quantitative PCR of TGFβ pathway genes, PATC53; type: cell-based; conditions: TGFβ 100 ng/ml, LHRH-curcumin 20 μM and 50 μM
Description: GAPDH was used as a reference.
mRNA levels of Smad3, SNAI1, SNAI2, TGFBRI, TGFBRII, GADD45 and XIAP were determined by quantitative real-time PCR using the Roche Universal Library Probe protocol. Thermal cycling was carried out using the LightCycler96 system from Roche under the following conditions: 95° C. for 10 min and 40 cycles at 95° C. for 15 s and 55° C. for 60 s. mRNA expression for any given gene is represented as comparative to the control-treated cells. GAPDH was used as the housekeeping gene of reference.

[2] = test system: non-target control (NT) Panc-1 spheroides; experiment: 3D spheroid growth, non-target control (NT) Panc-1; type: cell-based; conditions: 30 μM
[3] = test system: cleaved PARP, XIAP and cIAP2 in BxPC-3 cells; experiment: Western blot of apoptosis markers and inhibitors of apoptosis, BxPC-3; type: cell-based; conditions: for XIAP and c-IAP2 protein levels: 24 h; for apoptosis marker cleaved PARP: 24 h post-treatment, LHRH-curcumin 10-100 uM, gemcitabine 1-20 uM
Description: (§3) Pancreatic cells were collected after trypsinization and seeded in 12-well plates for 24 h before treatments. Treatments were performed as described in the Figure legends. Following treatment, whole cell lysates were collected in Laemmli buffer and analyzed by Western blot. The following primary antibodies were used: XIAP, c-IAP2, cleaved PARP, Caspase-3 (all from Cell Signaling), actin (Santa Cruz) and LHRHR (Abcam).
(§4) Western blot analysis. Actin, GAPDH and Ponceau staining were used as loading controls. Gemcitabine was diluted in water. Curcumin and LHRH-curcumin were diluted in DMSO. Cells were treated as follows:
Western blot analysis. Actin, GAPDH and Ponceau staining were used as loading controls. Gemcitabine was diluted in water. Curcumin and LHRH-curcumin were diluted in DMSO.

[4] = test system: cleaved PARP, XIAP and cIAP2 in Panc-1 cells; experiment: Western blot of apoptosis markers and inhibitors of apoptosis, Panc-1; type: cell-based; conditions: for apoptosis marker cleaved PARP: 24 h post-treatment, LHRH-curcumin 10-100 uM, gemcitabine 1-20 uM
Description: as §3, §4
Western blot analysis. Actin, GAPDH and Ponceau staining were used as loading controls. Gemcitabine was diluted in water. Curcumin and LHRH-curcumin were diluted in DMSO. The cells were treated as follows:
Western blot analysis. Actin was used as loading control. Both gemcitabine and LHRH-curcumin were diluted in water.

[5] = test system: cleaved PARP, XIAP and cIAP2 in PATC53 cells; experiment: Western blot of apoptosis markers, PATC53; type: cell-based
Description: PATC53 cells were treated as described and Western blot was perform in order to detect apoptosis markers (cleaved PARP) and inhibitors of apoptosis (XIAP and cIAP2) 24 h post-treatment. Actin was used as loading controls.
PATC53 cells were treated as presented and Western blot was perform in order to detect apoptosis markers (cleaved PARP) and inhibitors of apoptosis (XIAP and cIAP2) 48 h post-treatment. Actin was used as loading controls.
Pancreatic cancer cells were collected after trypsinization and seeded in 12-well plates for 24 h before treatments. Treatments were performed as described in the Figure legends. Following treatment whole-cell lysates were collected in Laemmli buffer and analyzed by Western blot. The following primary antibodies were used: cleaved PARP, c-IAP2, XIAP, cleaved Parp-1 (all from Cell Signaling), actin (Santa Cruz).

PATX102 tissue slices = experiment: Live Tissue Sensitivity Assay (LTSA), PATX102; type: cell-based; conditions: 72 hours
Description: as §1, §2

PATX213 tissue slices = experiment: Live Tissue Sensitivity Assay (LTSA), PATX213; type: cell-based; conditions: single agent, 72 hours
Description: as §1, §2

PATX153 tissue slices = experiment: Live Tissue Sensitivity Assay (LTSA), PATX153; type: cell-based; conditions: 72 hours
Description: as §1, §2

PATX55 tissue slices = experiment: Live Tissue Sensitivity Assay (LTSA), PATX55; type: cell-based; conditions: 72 hours
Description: as §1, §2

[6] = four mice treated with LHRH-curcumin twice a week (20 mg/kg)
Description: Samples of tumor tissue were weighed, then pulverized using a Bessman Tissue Pulverizer cooled 3-5 minutes in liquid nitrogen. Resultant powder was then placed in glass homogenizing chamber, mixed in PBS to 20% solution, and crushed to produce final homogenate. 200 Ml aliquot of homogenate was dispensed in Axygen 2 mL clear microtube (Part #: MCT-200-C-S). Each sample was extracted with 1 mL 10% methanol/90% ethyl acetate, vortexed, and spun 30 minutes at 14,000 rpm in a cold room centrifuge. The upper organic phase layer was then removed and placed in separate microcentrifuge tubes. The procedure was repeated, and pooled tumor extracts were concentrated using a Savant SpeedVac. Samples were reconstituted in 100 μL of 1 mM ascorbic acidic MeOH (pH 4.6), mixed in a sonication bath for 2 minutes, and 75 μL were injected on-column. Reverse-phase HPLC (Agilent 1100 series) with a Thermo ODS Hypersil 5 μm 250 mm×4.6 mm analytical column (Part #: 30105-252130) operated at ambient temperature was used to quantify curcumin in tumor. The mobile phase was 0.1% TFA (Mobile A) and acetonitrile with 0.08% TFA (Mobile B). […] With all analyses performed at 0.5 mL/min flow rate and fluorescence detection at Ex 420 nm and Em 524 nm, curcumin eluted at about 16.5 minutes.

PATX112 tissue slices = experiment: Live Tissue Sensitivity Assay (LTSA), PATX112; type: cell-based; conditions: 72 hours
Description: as §1, §2

PATX193 tissue slices = experiment: Live Tissue Sensitivity Assay (LTSA), PATX193; type: cell-based; conditions: 72 hours
Description: as §1, §2

physchem = conditions: saline (PBS)
PATX141 tissue slices = experiment: Live Tissue Sensitivity Assay (LTSA), PATX141; type: cell-based; conditions: 72 hours
Description: as §1, §2

PATX162 tissue slices = experiment: Live Tissue Sensitivity Assay (LTSA), PATX162; type: cell-based; conditions: single agent, 72 hours
Description: as §1, §2

[7] = curcumin, LHRH-curcumin 50 uM and 100 uM alone, gemcitabine alone
[8] = 24 h, curcumin, LHRH-curcumin 50 uM and 100 uM alone, gemcitabine alone

COc1cc(/C=C/C(=O)CC(=O)/C=C/c2ccc(OC(=O)CCCC(=O)NCCCC[C@@H](NC(=O)[C@H](Cc3ccc(O)cc3)NC(=O)[C@H](CO)NC(=O)[C@H](Cc3c[nH]c4ccccc34)NC(=O)[C@H](Cc3c[nH]cn3)NC(=O)[C@@H]3CCC(=O)N3)C(=O)N[C@@H](CC(C)C)C(=O)N[C@@H](CCCNC(=N)N)C(=O)N3CCC[C@H]3C(=O)NCC(N)=O)c(OC)c2)ccc1O [LHRH-curcumin, [DLys6]-LHRH-Curcumin]
Sensitivity To LHRH-C (PATX173 tissue slices; single agent): Resistant | Sensitivity To LHRH-C (PATX92 tissue slices; single agent): Resistant | mRNA levels of GADD45 and XIAP [1]: affected | mRNA levels of TGFβ signaling genes (SMAD3, SNAI1, SNAI2, TGFBRI, TGFBRII) ([1]; 24 h and 48 h): down-regulated | spheroids growth [2]: superior to that of LHRH or curcumin alone | XIAP and c-IAP2 protein levels ([3]; 50 uM in the presence of gemcitabine (5 uM)): down-regulated | XIAP and c-IAP2 protein levels [3, 7]: down-regulated | apoptosis marker cleaved PARP ([3]; curcumin): initiate apoptosis as illustrated by the presence of cleaved PARP | XIAP and c-IAP2 protein levels ([4]; 24 h, 50 uM in the presence of gemcitabine (5 uM)): down-regulated | XIAP and c-IAP2 protein levels [4, 8]: down-regulated | apoptosis marker cleaved PARP ([4]; curcumin): initiate apoptosis as illustrated by the presence of cleaved PARP | XIAP and c-IAP2 protein levels ([4]; 72 h, LHRH-curcumin 10 uM and 20 uM in the presence of gemcitabine (5 uM and 10 uM)): down-regulated | apoptosis inhibitors (XIAP and cIAP2) ([5]; 48 h post-treatment, 30 μM): Modest reduction of apoptosis inhibitors | Sensitivity To LHRH-C (PATX102 tissue slices; single agent): Resistant | Sensitivity To LHRH-C (PATX213 tissue slices): Sensitive (The tissue was defined as sensitive to the treatment if both p<0.05 and at least 30% of tissue slice viability on average was inhibited) | Sensitivity To LHRH-C (PATX153 tissue slices; single agent): Sensitive (The tissue was defined as sensitive to the treatment if both p<0.05 and at least 30% of tissue slice viability on average was inhibited) | Sensitivity To LHRH-C (PATX55 tissue slices; single agent): Sensitive (The tissue was defined as sensitive to the treatment if both p<0.05 and at least 30% of tissue slice viability on average was inhibited) | free curcumin in tumor tissue extract (HPLC peak at approximately 16.5 min) [6]: free curcumin present in the extract | Sensitivity To LHRH-C (PATX112 tissue slices; single agent): Sensitive (The tissue was defined as sensitive to the treatment if both p<0.05 and at least 30% of tissue slice viability on average was inhibited) | Sensitivity To LHRH-C (PATX193 tissue slices; single agent): Sensitive (The tissue was defined as sensitive to the treatment if both p<0.05 and at least 30% of tissue slice viability on average was inhibited) | solubility (physchem): ≥ 24 mg/mL | Sensitivity To LHRH-C (PATX141 tissue slices; single agent): Resistant | Sensitivity To LHRH-C (PATX162 tissue slices): Sensitive (The tissue was defined as sensitive to the treatment if both p<0.05 and at least 30% of tissue slice viability on average was inhibited)

Nc1ccn([C@@H]2O[C@H](CO)[C@@H](O)C2(F)F)c(=O)n1 [gemcitabine, 2′,2′-difluoro 2′deoxycytidine, reference compound]
tissue slice viability (PATX173 tissue slices; Gem 10 μM): 89.87 | tissue slice viability (PATX92 tissue slices; Gem 10 μM): 85.63 | XIAP and c-IAP2 protein levels [3, 7]: doesn't affect XIAP and c-IAP2 levels | apoptosis marker cleaved PARP ([3]; curcumin): Low levels of cleaved PARP was detected | XIAP and c-IAP2 protein levels [4, 8]: doesn't affect XIAP and c-IAP2 levels | apoptosis marker cleaved PARP ([4]; curcumin): no cleaved PARP was detected | response of PATC53 cells (apoptosis markers) ([5]; 24 h post-treatment): resistance | tissue slice viability (PATX102 tissue slices; Gem 10 μM): 99.65 | tissue slice viability (PATX153 tissue slices; Gem 10 μM): 96.86 | tissue slice viability (PATX55 tissue slices; Gem 10 μM): 95.45 | tissue slice viability (PATX112 tissue slices; Gem 10 μM): 91.71 | tissue slice viability (PATX193 tissue slices; Gem 10 μM): 92.70 | tissue slice viability (PATX141 tissue slices; Gem 10 μM): 105.35

Source: patent US10603335B2, “Cancer treatment combination compositions, methods and uses” (Board of Supervisors of Louisiana State University and …, priority 2016, dated 2020)
